Holding throughout (type): biochemical
One experiment deals with T1, HDAC2 (Homo sapiens, UniProt Q92769).
T1 construct: purchased Enzo Life Sciences
The experiment in a line: HDAC Inhibition Screening Assay (FLUOR DE LYS Fluorimetric Drug Discovery Kit), HDAC2. Conditions: for inhibition at 2 µM: 2 μM compound; for inhibition at 10 µM: 10 μM compound; for inhibition at 50 µM: 50 μM compound. As for the experimental part: (§1) The HDAC1/HDAC2/HDAC3 in vitro activities are detected by Enzo Life Sciences' HDAC1/HDAC2/HDAC3 Fluorimetric Drug Discovery Kit. The assay is based on the FLUOR DE LYS® Substrate and FLUOR DE LYS® Developer combination. The assay procedure has two steps. First, the FLUOR DE LYS® Substrate, which comprises an acetylated lysine side chain, is incubated with HDAC1/HDAC2/HDAC3, respectively. Deacetylation of the substrate sensitizes the substrate so that, in the second step, treatment with the FLUOR DE LYS® Developer produces a fluorophore. The signals of the test compounds (Compounds 1˜83; at concentrations of 2 μM, 10 μM and 50 μM) in 96-well plates are detected at 360 nm or 485 nm excitation and 460 nm or 530 nm emission with a Molecular Devices SpectraMax i3 Imaging Cytometer. The HDAC1/HDAC2/HDAC3 activities are expressed in percentage of basal control minus baseline control.

For the next experiment, the target named is T2, HDAC1 (Homo sapiens, UniProt Q13547).
T2 construct: purchased Enzo Life Sciences
Description: HDAC Inhibition Screening Assay (FLUOR DE LYS Fluorimetric Drug Discovery Kit), HDAC1. Conditions: for inhibition at 2 µM: 2 μM compound; for inhibition at 10 µM: 10 μM compound; for inhibition at 50 µM: 50 μM compound. As for the experimental part: as §1

The next experiment has as its target T3, ATX (autotaxin) (Homo sapiens, UniProt Q13822).
T3 construct: purchased Cayman 10803
Description: Autotaxin Inhibition Screening Assay (choline release from LPC, LPC-CR). Conditions: for inhibition at 4 µM: 4 μM compound; for inhibition at 20 µM: 20 μM compound; for inhibition at 50 µM: 50 μM compound. The protocol: ATX (autotaxin) activity was measured by choline release from LPC in presence or absence of test compounds (Compounds 1˜83; at concentrations of 4 μM, 20 μM and 50 μM). Twenty (20) ng ATX (10803, Cayman, MI, USA) was incubated with 100 μM 14:0 LPC (855575P, Avanti, AL, USA) in a final volume of 100 μL buffer containing 50 mM Tris pH 8.0, 0.01% Triton X-100, 50 mM CaCl2, 1 unit/ml choline oxidase, 2 unit/ml horseradish peroxidase (HRP), 2 mM homovanilic acid (HVA). The relative amount of released choline was measured by HVA fluorescence in a 96-well plate. Fluorescent intensity was determined at λex/λem=320/450 nm every 60 sec for 90 min with a SpectraMax i3 (Molecular Devices, CA, USA). Data analysis was performed using GraphPad Prism (GraphPad, La Jolla CA, USA). Inhibition %=[1−(SlopeTA−SlopeBlank)/(SlopeVehicle−SlopeBlank)]×100% HDAC Inhibition Screening Assay

For a further experiment, the target named is T4, HDAC3 (Homo sapiens, UniProt O15379).
T4 construct: purchased Enzo Life Sciences
The experiment in a line: HDAC Inhibition Screening Assay (FLUOR DE LYS Fluorimetric Drug Discovery Kit), HDAC3. As to conditions: for inhibition at 2 µM: 2 μM compound; for inhibition at 10 µM: 10 μM compound; for inhibition at 50 µM: 50 μM compound. As for the experimental part: as §1

Among the data in patent US12162820B2 (TAIWANJ PHARMACEUTICALS CO., LTD., priority 2019, dated 2024) are inhibition values, retold here.

T1 sequence (Q92769 whole entry): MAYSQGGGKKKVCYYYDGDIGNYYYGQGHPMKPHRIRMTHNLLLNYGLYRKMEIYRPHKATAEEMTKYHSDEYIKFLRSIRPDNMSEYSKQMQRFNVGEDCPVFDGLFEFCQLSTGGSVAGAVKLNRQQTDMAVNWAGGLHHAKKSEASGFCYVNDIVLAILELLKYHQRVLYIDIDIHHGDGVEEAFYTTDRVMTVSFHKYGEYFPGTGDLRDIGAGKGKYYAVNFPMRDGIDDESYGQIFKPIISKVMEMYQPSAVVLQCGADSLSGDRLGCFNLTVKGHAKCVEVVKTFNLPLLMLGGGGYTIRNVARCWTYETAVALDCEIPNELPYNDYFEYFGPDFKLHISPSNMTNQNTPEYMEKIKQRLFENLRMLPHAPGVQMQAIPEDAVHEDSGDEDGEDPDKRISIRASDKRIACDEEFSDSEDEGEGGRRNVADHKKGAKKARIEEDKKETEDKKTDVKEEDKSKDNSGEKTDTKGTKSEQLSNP
T4 sequence (O15379 whole entry): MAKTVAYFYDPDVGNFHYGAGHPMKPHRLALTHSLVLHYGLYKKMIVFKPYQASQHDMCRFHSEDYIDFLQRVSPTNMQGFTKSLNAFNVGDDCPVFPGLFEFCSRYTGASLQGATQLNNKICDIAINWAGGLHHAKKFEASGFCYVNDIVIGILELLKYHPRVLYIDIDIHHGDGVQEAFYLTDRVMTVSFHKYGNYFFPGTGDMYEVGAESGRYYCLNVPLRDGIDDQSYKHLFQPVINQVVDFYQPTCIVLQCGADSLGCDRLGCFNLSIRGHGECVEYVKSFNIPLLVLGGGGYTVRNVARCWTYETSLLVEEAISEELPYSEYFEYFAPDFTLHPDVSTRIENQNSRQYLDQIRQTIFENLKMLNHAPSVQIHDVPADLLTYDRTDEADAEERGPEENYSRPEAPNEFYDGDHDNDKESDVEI
T4 sequence (O75376 395-489 partner limits assumed): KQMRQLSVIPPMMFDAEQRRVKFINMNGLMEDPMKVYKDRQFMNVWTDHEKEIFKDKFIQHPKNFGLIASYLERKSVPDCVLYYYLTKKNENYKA
T2 sequence (Q13547 whole entry): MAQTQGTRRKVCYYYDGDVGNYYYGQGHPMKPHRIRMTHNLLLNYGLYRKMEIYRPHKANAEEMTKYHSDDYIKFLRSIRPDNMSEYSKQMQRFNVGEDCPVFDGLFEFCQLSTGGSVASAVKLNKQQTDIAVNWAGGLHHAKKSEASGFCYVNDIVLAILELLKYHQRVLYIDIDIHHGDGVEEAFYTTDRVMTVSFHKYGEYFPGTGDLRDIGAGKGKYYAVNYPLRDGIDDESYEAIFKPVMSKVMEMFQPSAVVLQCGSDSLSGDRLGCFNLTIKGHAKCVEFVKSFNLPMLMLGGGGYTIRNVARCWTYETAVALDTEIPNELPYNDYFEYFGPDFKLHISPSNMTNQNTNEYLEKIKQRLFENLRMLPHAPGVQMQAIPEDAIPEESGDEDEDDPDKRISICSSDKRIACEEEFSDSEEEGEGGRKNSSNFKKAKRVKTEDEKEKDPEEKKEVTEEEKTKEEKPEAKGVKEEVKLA

Regarding `Nc1cc(F)ccc1NC(=O)CCCCCC(=O)Nc1ccc2c(c1)CC/C(=C\c1cc(C(F)(F)F)cc(C(F)(F)F)c1)C2=O` [Compound 11, (E)-N1-(2-amino-4-fluorophenyl)-N7-(6-(3,5-bis(trifluoromethyl)benzylidene)-5-oxo-5,6,7,8-tetrahydronaphthalen-2-yl)heptanediamide], on HDAC2, the inhibition at 2 µM was under 50%, the inhibition at 10 µM was under 50% and the inhibition at 50 µM was under 50%. For the same compound, on HDAC1, the inhibition at 2 µM is under 50%, the inhibition at 10 µM is under 50% and the inhibition at 50 µM was under 50%. At ATX (autotaxin), this compound had an inhibition at 4 µM of over 80%, an inhibition at 20 µM of over 80% and an inhibition at 50 µM of over 80%. In addition, on HDAC3, the inhibition at 2 µM is under 50%, the inhibition at 10 µM is under 50% and the inhibition at 50 µM was under 50%.
Turning to `O=C(CCCCCC(=O)Nc1ccc2c(c1)CC/C(=C\c1cc(C(F)(F)F)cc(C(F)(F)F)c1)C2=O)NO` [Compound 12, (E)-N1-(6-(3,5-bis(trifluoromethyl)benzylidene)-5-oxo-5,6,7,8-tetrahydronaphthalen-2-yl)-N7-hydroxyheptanediamide], on HDAC2, the inhibition at 2 µM lay in the range of 50 to 80%, the inhibition at 10 µM is over 80% and the inhibition at 50 µM was over 80%. For the same compound, at HDAC1, the inhibition at 2 µM was under 50%, the inhibition at 10 µM is 50 to 80% and the inhibition at 50 µM was over 80%. At ATX (autotaxin), this compound yielded an inhibition at 4 µM of over 80%, an inhibition at 20 µM of over 80% and an inhibition at 50 µM of over 80%. On HDAC3, the inhibition at 2 µM lay in the range of 50 to 80%, the inhibition at 10 µM is over 80% and the inhibition at 50 µM was over 80%.
Regarding `Nc1cc(F)ccc1NC(=O)CCCCC(=O)Nc1ccc2c(c1)CC/C(=C\c1cc(C(F)(F)F)cc(C(F)(F)F)c1)C2=O` [Compound 13, (E)-N1-(2-amino-4-fluorophenyl)-N6-(6-(3,5-bis(trifluoromethyl)benzylidene)-5-oxo-5,6,7,8-tetrahydronaphthalen-2-yl)adipamide], at HDAC2, the inhibition at 2 µM was under 50%, the inhibition at 10 µM is under 50% and the inhibition at 50 µM is under 50%. Moreover, at HDAC1, the inhibition at 2 µM was under 50%, the inhibition at 10 µM is under 50% and the inhibition at 50 µM was under 50%. Also, at ATX (autotaxin), the inhibition at 4 µM lay within 50 to 80%, the inhibition at 20 µM lay in the range of 50 to 80% and the inhibition at 50 µM is 50 to 80%. On HDAC3, the inhibition at 2 µM is under 50%, the inhibition at 10 µM was under 50% and the inhibition at 50 µM was under 50%.
As to `O=C(CCCCC(=O)Nc1ccc2c(c1)CC/C(=C\c1cc(C(F)(F)F)cc(C(F)(F)F)c1)C2=O)NO` [Compound 14, (E)-N1-(6-(3,5-bis(trifluoromethyl)benzylidene)-5-oxo-5,6,7,8-tetrahydronaphthalen-2-yl)-N6-hydroxyadipamide], at HDAC2, the inhibition at 2 µM was under 50%, the inhibition at 10 µM lay within 50 to 80% and the inhibition at 50 µM is over 80%. For the same compound, on HDAC1, the inhibition at 2 µM is under 50%, the inhibition at 10 µM was 50 to 80% and the inhibition at 50 µM is over 80%. Also, on ATX (autotaxin), the inhibition at 4 µM is over 80%, the inhibition at 20 µM was over 80% and the inhibition at 50 µM is over 80%. On HDAC3, the inhibition at 2 µM is under 50%, the inhibition at 10 µM was under 50% and the inhibition at 50 µM is over 80%.
Take `O=C(/C=C/c1ccc2c(c1)CCC2NC(=O)OCc1cc(C(F)(F)F)cc(C(F)(F)F)c1)NO` (stereo not drawn) [Compound 15, 3,5-bis(trifluoromethyl)benzyl (E)-(5-(3-(hydroxyamino)-3-oxoprop-1-en-1-yl)-2,3-dihydro-1H-inden-1-yl)carbamate]: on HDAC2, the inhibition at 2 µM was under 50%, the inhibition at 10 µM is 50 to 80% and the inhibition at 50 µM is over 80%. Also, on HDAC1, the inhibition at 2 µM is under 50%, the inhibition at 10 µM fell in the range of 50 to 80% and the inhibition at 50 µM is over 80%. On ATX (autotaxin), this compound returned an inhibition at 4 µM of under 50%, an inhibition at 20 µM of under 50% and an inhibition at 50 µM of under 50%. Further, on HDAC3, the inhibition at 2 µM is under 50%, the inhibition at 10 µM is 50 to 80% and the inhibition at 50 µM was over 80%.
As to `Cc1ccc(S(=O)(=O)NC2CCc3cc(/C=C/C(=O)NO)ccc32)cc1` (stereo not drawn) [Compound 16, (E)-N-hydroxy-3-(1-((4-methylphenyl)sulfonamido)-2,3-dihydro-1H-inden-5-yl)acrylamide], at HDAC2, the inhibition at 2 µM was over 80%, the inhibition at 10 µM is over 80% and the inhibition at 50 µM was over 80%. At HDAC1, the inhibition at 2 µM is over 80%, the inhibition at 10 µM is over 80% and the inhibition at 50 µM was over 80%. At ATX (autotaxin), the inhibition at 4 µM was under 50%, the inhibition at 20 µM is under 50% and the inhibition at 50 µM was under 50%. Moreover, on HDAC3, the inhibition at 2 µM is over 80%, the inhibition at 10 µM was over 80% and the inhibition at 50 µM was over 80%.
Take `Nc1cc(F)ccc1NC(=O)/C=C/c1ccc2c(c1)CCC2NS(=O)(=O)c1cc(C(F)(F)F)cc(C(F)(F)F)c1` (stereo not drawn) [Compound 17, (E)-N-(2-amino-4-fluorophenyl)-3-(1-((3,5-bis(trifluoromethyl)phenyl)sulfonamido)-2,3-dihydro-1H-inden-5-yl)acrylamide]: at HDAC2, the inhibition at 2 µM is under 50%, the inhibition at 10 µM is under 50% and the inhibition at 50 µM is under 50%. Further, at HDAC1, the inhibition at 2 µM was under 50%, the inhibition at 10 µM is under 50% and the inhibition at 50 µM was under 50%. Further, at ATX (autotaxin), the inhibition at 4 µM is under 50%, the inhibition at 20 µM is under 50% and the inhibition at 50 µM was under 50%. Also, at HDAC3, the inhibition at 2 µM is under 50%, the inhibition at 10 µM was under 50% and the inhibition at 50 µM is under 50%.
As to `O=C(/C=C/c1ccc2c(c1)CCC2NS(=O)(=O)c1cc(C(F)(F)F)cc(C(F)(F)F)c1)NO` (stereo not drawn) [Compound 18], on HDAC2, the inhibition at 2 µM is 50 to 80%, the inhibition at 10 µM is 50 to 80% and the inhibition at 50 µM is over 80%. Besides, on HDAC1, the inhibition at 2 µM is under 50%, the inhibition at 10 µM is 50 to 80% and the inhibition at 50 µM is over 80%. On ATX (autotaxin), this compound showed an inhibition at 4 µM of under 50%, an inhibition at 20 µM of under 50% and an inhibition at 50 µM of under 50%. Moreover, on HDAC3, the inhibition at 2 µM is under 50%, the inhibition at 10 µM fell in the range of 50 to 80% and the inhibition at 50 µM was over 80%.
Consider `COc1ccc(S(=O)(=O)NC2CCc3cc(/C=C/C(=O)Nc4ccc(F)cc4N)ccc32)cc1` (stereo not drawn) [Compound 19, (E)-N-(2-amino-4-fluorophenyl)-3-(1-((4-methoxyphenyl)sulfonamido)-2,3-dihydro-1H-inden-5-yl)acrylamide], for which, on HDAC2, the inhibition at 2 µM is under 50%, the inhibition at 10 µM is under 50% and the inhibition at 50 µM is under 50%. On HDAC1, the inhibition at 2 µM is under 50%, the inhibition at 10 µM is under 50% and the inhibition at 50 µM was under 50%. On ATX (autotaxin), the inhibition at 4 µM is under 50%, the inhibition at 20 µM is under 50% and the inhibition at 50 µM is under 50%. Moreover, on HDAC3, the inhibition at 2 µM is under 50%, the inhibition at 10 µM is under 50% and the inhibition at 50 µM was under 50%.
